The test system of one series is cells. Kind of series: Agar diffusion plaque inhibition assay, zone of cytotoxicity (cell death). Format: cell-based. The settings on record: 50 μg of test compound. How it is done: These tests were performed by the methods described in the following published reference: (H. E. Renis, C. A. Hollowell, and G. E. Underwood, J. Med. Chem., Vol 10, pp 777-782 (1967)). Both DNA and RNA-containing viruses were used. The results are presented below as the zone of cytotoxicity (cell death)/zone of viral plaque inhibition for 50 μg of test compound.

The next series has as its system PR-8 Influenza (RNA). Format: cell-based, Influenza virus. The settings on record: PR8; 50 μg of test compound.
Series [1] concerns Coxsackie A21 virus (RNA). Kind of series: Agar diffusion plaque inhibition assay, COE. Format: cell-based. The settings on record: 50 μg of test compound. For orientation: A growth-free zone around the sample is the usual read-out of agar diffusion tests.
Series [2] deals with Parainfluenza 3 virus (RNA). Type of series: cell-based. The settings on record: HA-1; 50 μg of test compound.
A further series relates to Equine rhinovirus (RNA). The series can be described thus: Agar diffusion plaque inhibition assay, E.R. Type of series: cell-based. The settings on record: 50 μg of test compound.
The test system of series [3] is Herpes simplex virus type I (DNA). The series can be described thus: Agar diffusion plaque inhibition assay, HSV-1. Type of series: cell-based. The settings on record: 50 μg of test compound.
The subject of series [4] is Herpes simplex virus type II (DNA). Kind of series: Agar diffusion plaque inhibition assay, HSV-2. Format: cell-based. The settings on record: 50 μg of test compound.
A further series relates to Vaccinia virus (DNA). Type of series: cell-based. The settings on record: VACC.; 50 μg of test compound.

In the case of `COc1ccc(C[C@H]2C(=O)O[C@H](C)[C@H](NC(=O)[C@@H](CC(C)C)N(C)C(=O)C3CCCN3C(=O)C(C)OC(C)=O)C(=O)NC(CC(C)C)C(OC(C)=O)CC(=O)OC(C(C)C)C(=O)C(C)C(=O)N[C@@H](CC(C)C)C(=O)N3CCC[C@H]3C(=O)N2C)cc1` (some centres unmarked) [Diacetyl], the “zone of cytotoxicity (cell death)” value is given as 3 with cells (COE); 2 in the series with cells (E.R.); 1 in the series with cells (HA-1); 3 with cells (HSV-1); 3 in the series on cells (HSV-2); 3 in the series with cells (PR8). Besides, the “zone of cytotoxicity (cell death)” value with cells (VACC.) is recorded as 3. In addition, the “zone of viral plaque inhibition” value with PR-8 Influenza (RNA) is listed as 0; in series [1] it was 3; in series [2], 0; with Equine rhinovirus (RNA), 4; in series [3] it was 4; in series [4] it was 4. Further, in the series with Vaccinia virus (DNA), the “zone of viral plaque inhibition” value amounted to 4.
